Experiments:
[1] = Volatility of aqueous fumigant compositions with and without surfactant (weight loss); type: physicochemical; conditions: 10 grams HFPO + 4.0 grams Tween 80 in 40.0 grams water vs. 10.0 grams HFPO in 40 grams water; 20° C., vent open, weight loss every 30 seconds; FIG. 1
Protocol: Experimentation was carried out to determine the volatility of aqueous fumigant compositions, both with and without inclusion of a surfactant. In each case, HFPO was placed in a chilled 500 ml Fischer Porter tube that was equipped with a vent to remove any gases. The vessel was cooled to 0° C. and was charged with varying amounts of water, HFPO and surfactant. The temperature was equilibrated to 20° C. and the reactor was placed on a balance. The vent tube was opened and the weight loss was recorded every 30 seconds.
In analyzing the effects of adding surfactant to an aqueous solution of HFPO, 10.0 grams of HFPO was added to 40 grams of water. In a separate experiment, 10 grams of HFPO and 4.0 grams of Tween™ 80 were added to 40.0 grams of water. FIG. 1 provides a graphical representation of the numerical data comparing the volatility of an aqueous solution of HFPO, both with and without inclusion of the Tween™ 80 nonionic surfactant.

[2] = system: Abutilon theophrasti Medik; assay: Fumigant test on seed germination in soil, Abutilon theophrasti Medik; type: in vivo; conditions: for Abutilon theophrastic Medik (seeds germinated): 14 seeds in soil, 2 days exposure, counted after 10 days
Protocol: (§1) In particular, in 440 mL pressure vessels, fourteen seeds of Abutilon theophrasti Medik and fifteen seeds of Lolium multiflorum Lam were thoroughly mixed with 50 mL (approximately 30 grams) of soil and 6 ml of water. The filled vessels were kept at room temperature for 20-24 hours to allow the seeds to imbibe water before treatment. The vessels were sealed and evacuated, and then 80 ml, 160 ml and 440 ml, respectively, of gaseous HFPO was added. The vessels were thoroughly mixed and placed horizontally on the laboratory bench at ambient temperature for two days. The contents of each bottle were transferred to a plastic sterile Petri dish containing 7 mL of water. The Petri dishes were sealed with parafilm and incubated in the laboratory at ambient temperature. After 10 days, the number of germinated seeds was counted.

Lolium multiflorum Lam = assay: Fumigant test on seed germination in soil, Lolium multiflorum Lam; type: in vivo; conditions: for Loliium multiflorum Lam (seeds germinated): 15 seeds in soil, 2 days exposure, counted after 10 days
Protocol: as §1

[3] = 80 ml gaseous HFPO in 440 mL vessel
[4] = 160 ml gaseous HFPO in 440 mL vessel
[5] = 440 ml gaseous HFPO in 440 mL vessel

FC(F)(F)C1(F)OC1(F)F (stereo not drawn) [HFPO, 1,2-hexafluoropropylene oxide]
retention of HFPO in aqueous solution (volatility) [1]: inclusion of the surfactant provides for longer retention of the HFPO in solution
Abutilon theophrastic Medik (seeds germinated) [2, 3]: 0 seeds germinated
Abutilon theophrastic Medik (seeds germinated) [2, 4]: 0 seeds germinated
Abutilon theophrastic Medik (seeds germinated) [2, 5]: 0 seeds germinated
seed germination (in words) ([2]; seeds of the broadleaf species Abutilon theophrasti Medik): completely prevented seed germination
Loliium multiflorum Lam (seeds germinated) (Lolium multiflorum Lam; [3]): 0 seeds germinated
Loliium multiflorum Lam (seeds germinated) (Lolium multiflorum Lam; [4]): 0 seeds germinated
Loliium multiflorum Lam (seeds germinated) (Lolium multiflorum Lam; [5]): 0 seeds germinated
seed germination (in words) (Lolium multiflorum Lam; seeds of the grass weed species Lolium multiflorum Lam): completely prevented seed germination
